Reference: the supplement of paper PMC10883282

What was measured:
Test in all cases: relative viability vs DMSO control (72 h) (fraction); higher = more viable cells
[1] = system: RD
Outline: (§1)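 Densities for seeding sarcoma cell lines into 384-well plates were set to give 80–90% confluence. After 24 h, 2.5 µl of serially diluted compound from source plates of 10 mM to 0.0002 mM went in, and plates stayed 72 h at 37 °C in 5% CO2 with 0.1% DMSO vehicle and a 5 µM positive control. Percent growth from ATPLite readings, averaged over up to triplicate wells, served as relative viability, rescaled so 1 means full and 0 means none.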

[2] = system: VA-ES-BJ
Outline: as §1

[3] = system: HS729
Outline: as §1

[4] = system: MES-SA
Outline: as §1

[5] = system: SK-LMS-1
Outline: as §1

O=C(Nc1ccc(OC(F)(F)Cl)cc1)c1cnc(N2CC[C@@H](O)C2)c(-c2cc[nH]n2)c1 [Asciminib]
relative viability
Settings	[1]	[2]	[3]	[4]	[5]
0.00017 µM	1.05	0.998	0.939	0.88	0.928
0.00051 µM	1.049	0.982	0.932	0.902	0.955
0.00152 µM	1.067	0.995	0.93	0.864	0.972
0.00457 µM	1.08	0.99	0.915	0.898	0.97
0.01372 µM	1.05	0.999	0.916	0.9132	1.06
0.04115 µM	1.092	1.02	0.893	0.9229	1.02
0.1235 µM	1.088	1.02	0.928	0.914	1
0.3704 µM	1.11	1.03	0.901	0.951	1.05
1.111 µM	1.04	1.02	0.903	0.908	1.04
3.333 µM	1.07	0.9997	0.954	0.829	0.773
10 µM	0.984	0.9486	0.829	0.577	0.565

O=S(=O)(c1cccc2cnccc12)N1CCCNCC1 [Fasudil]
relative viability
Settings	0.00051 µM	0.00152 µM	0.00457 µM	0.01372 µM	0.04115 µM	0.1235 µM	0.3704 µM	1.111 µM	3.333 µM	10 µM
[1]	0.969	0.985	0.952	0.978	0.963	0.956	0.961	0.999	1.05	1.06
[2]	0.961	0.962	0.974	0.984	0.945	0.964	0.981	0.985	0.978	0.95
[3]	0.949	0.964	1.01	0.949	0.953	0.926	0.974	0.957	0.925	0.855
[4]	0.955	0.967	0.96	0.967	0.992	0.967	0.994	0.987	0.941	0.895
[5]	1.05	1.05	1.036	1.08	1.03	1.06	1.03	1.05	1.01	0.977

C[C@H](Nc1ncnc2nc[nH]c12)c1cc2cccc(Cl)c2c(=O)n1-c1ccccc1 [Duvelisib]
relative viability
Settings	[1]	[2]	[3]	[4]	[5]
0.00017 µM	1.08	1.09	1.06	0.98	1.05
0.00051 µM	1.1	1.1	1.09	0.961	1.04
0.00152 µM	1.13	1.09	1.03	0.964	1.08
0.00457 µM	1.11	1.1	1.03	0.944	1.05
0.01372 µM	1.12	1.08	1	0.906	1.03
0.04115 µM	1.11	1.06	0.987	0.9422	0.9363
0.1235 µM	1.08	1.01	1.02	0.923	0.91
0.3704 µM	1.07	0.941	0.891	0.849	0.811
1.111 µM	0.994	0.834	0.863	0.77	0.688
3.333 µM	0.84	0.688	0.726	0.631	0.572
10 µM	0.619	0.48	0.606	0.453	0.438

CC(C)Oc1ccc(-c2nn([C@@H](C)c3oc4ccc(F)cc4c(=O)c3-c3cccc(F)c3)c3ncnc(N)c23)cc1F [Umbralisib]
relative viability
Settings	[1]	[2]	[3]	[4]	[5]
0.00017 µM	1.1	1.07	1.09	0.946	1.07
0.00051 µM	1.08	1.07	1.09	0.928	1.06
0.00152 µM	1.11	1.11	1.05	0.94	1.06
0.00457 µM	1.1	1.08	1.04	0.981	1.04
0.01372 µM	1.113	1.08	1.05	0.957	1.05
0.04115 µM	1.11	1.05	0.991	0.9436	1.05
0.1235 µM	1.12	1.07	1.04	0.943	1.03
0.3704 µM	1.08	1.05	1.01	0.945	1.06
1.111 µM	1.14	1.05	0.942	0.937	1.02
3.333 µM	1.11	1.05	0.936	0.922	0.875
10 µM	1.11	1.1	0.895	0.747	0.752

CCN1C(=O)N(c2c(F)c(OC)cc(OC)c2F)Cc2cnc3[nH]c(CN4CCOCC4)cc3c21 [Pemigatinib]
relative viability
Settings	[1]	[2]	[3]	[4]	[5]
0.00017 µM	1.02	1.02	1	0.912	1.05
0.00051 µM	1.07	1.03	0.95	0.9387	1.09
0.00152 µM	1.06	1.023	0.912	0.937	1.105
0.00457 µM	1.06	1.011	0.92	0.914	1.08
0.01372 µM	1.04	1.04	0.843	0.91	1.09
0.04115 µM	1.04	1.05	0.751	0.826	1.07
0.1235 µM	1.03	1.036	0.644	0.732	1.07
0.3704 µM	1.04	1.04	0.622	0.7701	1.07
1.111 µM	0.946	0.956	0.544	0.641	0.9589
3.333 µM	0.7043	0.775	0.484	0.397	0.667
10 µM	0.665	0.702	0.444	0.376	0.528
